Assay results reported in ChEMBL document CHEMBL3885861, “Open TG-GATES”.

Species: Rattus norvegicus
Assay: Open TG-GATES - Regimen: Single
Assay type: toxicity, organism-based, Sprague-Dawley
Set-up: regimen Single, gender Male, age 6 weeks
Settings: in vivo, po, route gavage; for TP / gamma-GTP / A/G / ALP / ALT / AST / BUN / CRE / Ca / Cl / DBIL / GLC / IP / K / LDH / Na / PL / RALB / TBIL / TC / TG: tissue Plasma; for APTT / Bas / Eos / Fbg / Hb / Ht / Lym / MCH / MCHC / MCV / Mono / Neu / PT / Plat / RBC / Ret / WBC: tissue Blood; for KIDNEY_L / KIDNEY_R / KIDNEY_TOTAL: tissue Kidney; for LIVER: tissue Liver
[1] = 2 mg/kg, 3 h, dose level Middle
[2] = 2 mg/kg, 6 h, dose level Middle
[3] = 2 mg/kg, 9 h, dose level Middle

COc1ccc2c(c1)c(CC(=O)O)c(C)n2C(=O)c1ccc(Cl)cc1 [INDOMETHACIN]
TP (1 mg/kg, 9 h, dose level Low): 5.3 g/dL
gamma-GTP (1 mg/kg, 9 h, dose level Low): 1.4 IU/L
TERMINAL_BW (1 mg/kg, 24 h, dose level Low): 215.2 g
APTT (1 mg/kg, 24 h, dose level Low): 16.8 s
Bas (1 mg/kg, 24 h, dose level Low): 0%
Eos (1 mg/kg, 24 h, dose level Low): 0.8%
Fbg (1 mg/kg, 24 h, dose level Low): 198.2 mg/dL
Hb (1 mg/kg, 24 h, dose level Low): 13.5 g/dL
Ht (1 mg/kg, 24 h, dose level Low): 40.7%
Lym (1 mg/kg, 24 h, dose level Low): 79%
MCH (1 mg/kg, 24 h, dose level Low): 21.8 pg
MCHC (1 mg/kg, 24 h, dose level Low): 33.2%
MCV (1 mg/kg, 24 h, dose level Low): 65.6 fL
Mono (1 mg/kg, 24 h, dose level Low): 8.8%
Neu (1 mg/kg, 24 h, dose level Low): 11.4%
PT (1 mg/kg, 24 h, dose level Low): 12.3 s
Plat (1 mg/kg, 24 h, dose level Low): 112.3 x10_4/uL
RBC (1 mg/kg, 24 h, dose level Low): 620.8 x10_4/ul
Ret (1 mg/kg, 24 h, dose level Low): 9%
WBC (1 mg/kg, 24 h, dose level Low): 118.2 x10_2/uL
KIDNEY_L (1 mg/kg, 24 h, dose level Low): 1 g
KIDNEY_R (1 mg/kg, 24 h, dose level Low): 1 g
KIDNEY_TOTAL (1 mg/kg, 24 h, dose level Low): 1.9 g
LIVER (1 mg/kg, 24 h, dose level Low): 10.2 g
A/G (1 mg/kg, 24 h, dose level Low): 2.2
ALP (1 mg/kg, 24 h, dose level Low): 1141.2 IU/L
ALT (1 mg/kg, 24 h, dose level Low): 41.2 IU/L
AST (1 mg/kg, 24 h, dose level Low): 71 IU/L
BUN (1 mg/kg, 24 h, dose level Low): 16.6 mg/dL
CRE (1 mg/kg, 24 h, dose level Low): 0.5 mg/dL
Ca (1 mg/kg, 24 h, dose level Low): 10.3 mg/dL
Cl (1 mg/kg, 24 h, dose level Low): 105.2 meq/L
DBIL (1 mg/kg, 24 h, dose level Low): 0.016 mg/dL
GLC (1 mg/kg, 24 h, dose level Low): 202.6 mg/dL
IP (1 mg/kg, 24 h, dose level Low): 8.6 mg/dL
K (1 mg/kg, 24 h, dose level Low): 5.1 meq/L
LDH (1 mg/kg, 24 h, dose level Low): 85 IU/L
Na (1 mg/kg, 24 h, dose level Low): 138.4 meq/L
PL (1 mg/kg, 24 h, dose level Low): 152.8 mg/dL
RALB (1 mg/kg, 24 h, dose level Low): 3.9 g/dL
TBIL (1 mg/kg, 24 h, dose level Low): 0.3 mg/dL
TC (1 mg/kg, 24 h, dose level Low): 88.4 mg/dL
TG (1 mg/kg, 24 h, dose level Low): 72 mg/dL
TP (1 mg/kg, 24 h, dose level Low): 5.7 g/dL
gamma-GTP (1 mg/kg, 24 h, dose level Low): 1 IU/L
TERMINAL_BW [1]: 195.5 g
APTT [1]: 17 s
Bas [1]: 0%
Eos [1]: 0.8%
Fbg [1]: 215 mg/dL
Hb [1]: 13.5 g/dL
Ht [1]: 40.3%
Lym [1]: 80.2%
MCH [1]: 22.2 pg
MCHC [1]: 33.5%
MCV [1]: 66.2 fL
Mono [1]: 8%
Neu [1]: 11.4%
PT [1]: 12.6 s
Plat [1]: 109.7 x10_4/uL
RBC [1]: 609.4 x10_4/ul
Ret [1]: 10.3%
WBC [1]: 99.3 x10_2/uL
KIDNEY_L [1]: 0.9 g
KIDNEY_R [1]: 0.9 g
KIDNEY_TOTAL [1]: 1.8 g
LIVER [1]: 8.7 g
A/G [1]: 1.6
ALP [1]: 1158.6 IU/L
ALT [1]: 39.8 IU/L
AST [1]: 74.4 IU/L
BUN [1]: 10.6 mg/dL
CRE [1]: 0.4 mg/dL
Ca [1]: 10.3 mg/dL
Cl [1]: 105.8 meq/L
DBIL [1]: 0.056 mg/dL
GLC [1]: 185.2 mg/dL
IP [1]: 10 mg/dL
K [1]: 4.8 meq/L
LDH [1]: 99.4 IU/L
Na [1]: 137.4 meq/L
PL [1]: 125 mg/dL
RALB [1]: 3.7 g/dL
TBIL [1]: 0.4 mg/dL
TC [1]: 72.2 mg/dL
TG [1]: 40 mg/dL
TP [1]: 6 g/dL
gamma-GTP [1]: 1.2 IU/L
TERMINAL_BW [2]: 199.6 g
APTT [2]: 17 s
Bas [2]: 0%
Eos [2]: 0.8%
Fbg [2]: 206.8 mg/dL
Hb [2]: 13.3 g/dL
Ht [2]: 40.2%
Lym [2]: 81.2%
MCH [2]: 21.6 pg
MCHC [2]: 33.2%
MCV [2]: 65.1 fL
Mono [2]: 6.4%
Neu [2]: 12%
PT [2]: 12.5 s
Plat [2]: 106.7 x10_4/uL
RBC [2]: 617.8 x10_4/ul
Ret [2]: 9.6%
WBC [2]: 84.6 x10_2/uL
KIDNEY_L [2]: 0.9 g
KIDNEY_R [2]: 0.9 g
KIDNEY_TOTAL [2]: 1.8 g
LIVER [2]: 8.6 g
A/G [2]: 1.8
ALP [2]: 959 IU/L
ALT [2]: 36.8 IU/L
AST [2]: 75 IU/L
BUN [2]: 10.6 mg/dL
CRE [2]: 0.5 mg/dL
Ca [2]: 10.1 mg/dL
Cl [2]: 107 meq/L
DBIL [2]: 0.036 mg/dL
GLC [2]: 188.4 mg/dL
IP [2]: 9.1 mg/dL
K [2]: 4.9 meq/L
LDH [2]: 91.4 IU/L
Na [2]: 137.4 meq/L
PL [2]: 120.8 mg/dL
RALB [2]: 3.8 g/dL
TBIL [2]: 0.3 mg/dL
TC [2]: 73.4 mg/dL
TG [2]: 38.6 mg/dL
TP [2]: 5.9 g/dL
gamma-GTP [2]: 2.2 IU/L
TERMINAL_BW [3]: 198.4 g
APTT [3]: 16.6 s
Bas [3]: 0%
Eos [3]: 0.6%
Fbg [3]: 210 mg/dL
Hb [3]: 13.1 g/dL
Ht [3]: 39.8%
Lym [3]: 79.6%
MCH [3]: 21.8 pg
MCHC [3]: 33%
MCV [3]: 66.1 fL
Mono [3]: 8.2%
Neu [3]: 11.8%
PT [3]: 12.4 s
Plat [3]: 108.3 x10_4/uL
RBC [3]: 602.2 x10_4/ul
Ret [3]: 9.7%
